The text below walks through data of US20260184708A1, “PYRIDAZINONES AND METHODS OF USE THEREOF” (GFB (ABC), LLC, priority 2017, published 2026).

The first assay addresses T1, TRPC4 (Homo sapiens, UniProt Q9UBN4).
T1 construct: expressed in transfected cells; host or cells: HEK-TREx (HekTrex-293), cell line ICLN-1694, tetracycline-induced
T1 sequence (Q9UBN4 1-982 isoform Q9UBN4-5): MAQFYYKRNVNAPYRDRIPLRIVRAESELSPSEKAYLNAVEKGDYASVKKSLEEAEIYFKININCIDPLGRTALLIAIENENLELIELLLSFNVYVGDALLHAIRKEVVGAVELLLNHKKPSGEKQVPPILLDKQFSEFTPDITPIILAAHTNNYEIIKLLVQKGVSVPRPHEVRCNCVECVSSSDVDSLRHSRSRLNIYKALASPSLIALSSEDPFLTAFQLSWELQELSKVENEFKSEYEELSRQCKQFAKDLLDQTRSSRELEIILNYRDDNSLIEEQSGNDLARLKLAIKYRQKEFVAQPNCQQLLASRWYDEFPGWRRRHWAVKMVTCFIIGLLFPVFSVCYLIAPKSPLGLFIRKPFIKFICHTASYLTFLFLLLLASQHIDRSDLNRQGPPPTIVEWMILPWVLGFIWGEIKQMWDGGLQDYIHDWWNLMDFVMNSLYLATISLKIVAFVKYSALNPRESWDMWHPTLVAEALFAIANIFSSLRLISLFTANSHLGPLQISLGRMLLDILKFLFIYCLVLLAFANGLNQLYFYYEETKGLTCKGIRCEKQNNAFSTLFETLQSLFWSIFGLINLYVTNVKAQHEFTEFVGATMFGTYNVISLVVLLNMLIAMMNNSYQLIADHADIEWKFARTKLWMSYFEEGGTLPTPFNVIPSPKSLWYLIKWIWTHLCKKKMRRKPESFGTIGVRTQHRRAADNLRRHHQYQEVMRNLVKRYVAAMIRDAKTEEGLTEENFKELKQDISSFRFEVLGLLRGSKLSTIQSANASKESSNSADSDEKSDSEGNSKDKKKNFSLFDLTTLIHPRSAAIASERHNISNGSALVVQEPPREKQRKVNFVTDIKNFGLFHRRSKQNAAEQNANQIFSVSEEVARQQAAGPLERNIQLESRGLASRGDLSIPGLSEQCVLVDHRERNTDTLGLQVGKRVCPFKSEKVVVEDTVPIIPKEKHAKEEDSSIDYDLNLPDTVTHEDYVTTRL
Put plainly: TRPC4 FLIPR Assay (HEK-TREx hTRPC4, Englerin A stimulation).
Conditions: not given
It counts as cell-based. On the procedure:
FLIPR Assay Buffer (Earls Balanced Salt Solution (EBSS)) was prepared as follows:
10-point dose response curves were generated using the Echo-550 acoustic dispenser. Compound source plates were made by serially diluting compound stocks to create 10 mM, 1 mM, and 0.1 mM solutions in DMSO into Echo certified LDV plates. The Echo then serially spotted 100% DMSO stock solutions into source dose response plates to generate a 4-fold dilution scheme. 100% DMSO was added to the spotted dose response plates to bring the final volume to 5 μl. […] of the dose response stock plate was then spotted into pre-incubation and stimulation assay plates. […] of pre-incubation buffer and 100 μl of stimulation buffer was then added to the plates resulting in a final assay test concentration range of 30 μM to 0.0001 μM with a final DMSO concentration of 0.3%.
Experimental Methods: Cells expressing TRPC4 were plated onto 384 well, black pdl-coated microplates and maintained in TRPC4 growth media the day prior to use for experiments. TRPC4 expression was induced by the application of 1 μg/ml tetracycline at the time of plating. […] Cells were incubated at room temperature, protected from light, for 60-90 minutes. After the incubation period, the dye was removed and replaced with 10 μl of EBSS. Cell, pre-incubation and stimulation plates were loaded onto the FLIPR-II and the assay was initiated. The FLIPR measured a 10 second baseline and then added 10 μl of 2× compounds (or controls). Changes in fluorescence were monitored for an additional 5 minutes. After a 5 minute pre-incubation, 20 μl of 2× Englerin A (with 1× compound or controls) was added to the cell plate. The final Engerlin A stimulation concentration in the assay is 100 nM. After the Englerin A addition, changes in fluorescence were monitored for an additional 5 minutes.
Test Agent Effect: Test agent modulation of TRPC4 calcium response was determined as follows. After the Englerin A, fluorescence was monitored for a 5 minute period. The maximum relative fluorescence response (minus the control response of […] of the control inhibitor) was captured and exported from the FLIPR. Test agent effect was calculated as % inhibition using the following formula: % inhibition=((RFU TEST AGENT−Plate Average RFU REF INHIB)/(Plate Average RFU CONTROL−Plate Average RFU REF INHIB))×100
In turn, `O=C1CN(c2cn[nH]c(=O)c2Cl)CCN1Cc1cc(F)ccc1C(F)(F)F` yielded an IC50 of 0.01 to 1000 nM.

Still in this assay, the particulars now being: Table 8; HEK-TREx hTRPC4; read-out: TRPC4 FLIPR IC50.
For `O=c1[nH]ncc(N2CCc3c(ncn3Cc3ccccc3Cl)C2)c1Cl` [drawing 1000], the IC50 was 0.01 to 1000 nM.
With `CCc1ncccc1CN1CCN(c2cn[nH]c(=O)c2Cl)C(C)C1` (stereo not drawn), the IC50 was in the range of 5000 to 10000 nM.
With `C[C@H](c1ccc(F)cc1C(F)(F)F)N1C[C@@H](C)N(c2cn[nH]c(=O)c2Cl)CC1=O` [drawing 992], the IC50 lay in the range of 0.01 to 1000 nM.
Regarding `Cc1ccccc1CN1CCN(c2cn[nH]c(=O)c2Br)CC1=O`, the IC50 was in the range of 0.01 to 1000 nM.
On to `O=C1CN(c2cn[nH]c(=O)c2Br)CCN1Cc1cccc2ccccc12` [drawing 1009], for which the IC50 lay within 0.01 to 1000 nM.
Take `O=c1[nH]ncc(N2CCc3c(nnn3Cc3ccccc3C(F)(F)F)C2)c1Cl` [drawing 948]: the IC50 fell in the range of 0.01 to 1000 nM.
With `CCc1ncccc1N(C)c1ncc2c(n1)CN(c1cn[nH]c(=O)c1Cl)C2` [drawing 1006], the IC50 lay in the range of 0.01 to 1000 nM.
In the case of `CCc1ncccc1CN1CCN(c2cn[nH]c(=O)c2Cl)CC1`, the IC50 lay within 0.01 to 1000 nM.
As for `C[C@@H](c1ccc(F)cc1C(F)(F)F)N1CCN(c2cn[nH]c(=O)c2Cl)CC1=O` [drawing 993], the IC50 was in the range of 0.01 to 1000 nM.
Same read-out and setting: the same measure for `N#Cc1c(N2CCc3c(ncn3Cc3ccccc3C(F)(F)F)C2)cn[nH]c1=O` [drawing 956]: 1000 to 5000 nM; for `CN(c1ncc2c(n1)CN(c1cn[nH]c(=O)c1Cl)C2)c1ccc(F)cc1Cl` [drawing 1003]: 0.01 to 1000 nM.
On the same count and under the same terms, the same measure for `Cc1ccccc1[C@H](C)N1CCN(c2cn[nH]c(=O)c2Cl)CC1=O` [drawing 1020]: 10000 to 500000 nM; for `CC(c1ccc(F)cc1C(F)F)n1nc(C(N)=O)c2c1CCN(c1cn[nH]c(=O)c1Cl)C2` (stereo not drawn) [drawing 983]: 0.01 to 1000 nM; for `O=c1[nH]ncc(N2CCc3c(ncn3Cc3ccc(F)cc3C(F)(F)F)C2)c1Cl` [drawing 942]: 0.01 to 1000 nM.
On the same count and under the same terms, the same measure for `CCc1ccccc1Cn1cnc2c1CCN(c1cn[nH]c(=O)c1Cl)C2`: 0.01 to 1000 nM; for `CCc1cc(F)ccc1Cn1cnc2c1CCN(c1cn[nH]c(=O)c1Cl)C2` [drawing 958]: 0.01 to 1000 nM.
For `Cc1ccccc1Cn1cnc2c1CCN(c1cn[nH]c(=O)c1Cl)C2` [drawing 938], the IC50 is 0.01 to 1000 nM.
For `CCN(c1ncc2c(n1)CN(c1cn[nH]c(=O)c1Cl)C2)c1ccccc1Cl` [drawing 1004], the IC50 was in the range of 0.01 to 1000 nM.
Take `C[C@@H]1Cc2c(nnn2[C@@H](C)c2ccc(F)cc2C(F)(F)F)CN1c1cn[nH]c(=O)c1Cl` [drawing 974]: the IC50 is 0.01 to 1000 nM.
As to `CCS(=O)(=O)c1nc2c(n1Cc1ccccc1C(F)(F)F)CCN(c1cn[nH]c(=O)c1Cl)C2` [drawing 971], the IC50 was 0.01 to 1000 nM.
`CNC(=O)c1nn(Cc2ccc(F)cc2C(F)F)c2c1CN(c1cn[nH]c(=O)c1Cl)CC2` [drawing 985]: the IC50 was 0.01 to 1000 nM.
Same read-out and setting: the same measure for `Cc1ccccc1CN1C[C@@H](C)N(c2cn[nH]c(=O)c2Cl)CC1=O`: 5000 to 10000 nM; for `C[C@@H]1Cc2c(nnn2[C@@H](C)c2ccccc2C(F)(F)F)CN1c1cn[nH]c(=O)c1Cl` [drawing 968]: 0.01 to 1000 nM.
`CC(c1ccc(F)cc1C(F)F)n1[nH]c(=O)c2c1CCN(c1cn[nH]c(=O)c1Cl)C2` (stereo not drawn): the IC50 was in the range of 0.01 to 1000 nM.
Take `O=c1[nH]ncc(N2CCc3c(Cc4ccc(F)cc4C(F)(F)F)n[nH]c3C2)c1Cl` [drawing 1005]: the IC50 lay in the range of 0.01 to 1000 nM.
Still for that read-out and setting: next, `O=c1[nH]ncc(N2CCc3c(ncn3-c3ccccc3C(F)(F)F)C2)c1Cl` [drawing 954]: 1000 to 5000 nM.
`O=C1CN(c2cn[nH]c(=O)c2Cl)CCN1Cc1ccccc1OC(F)(F)F` [drawing 1015]: the IC50 was in the range of 0.01 to 1000 nM.
On to `C[C@H](c1ccccc1C(F)F)n1nnc2c1CCN(c1cn[nH]c(=O)c1Cl)C2` [drawing 977], for which the IC50 was 0.01 to 1000 nM.
On the same count and under the same terms, next, `C[C@@H](c1ccccc1)n1nnc2c1CCN(c1cn[nH]c(=O)c1Cl)C2`: 1000 to 5000 nM; `N#Cc1c(N2CCc3c(nnn3Cc3ccccc3C(F)(F)F)C2)cn[nH]c1=O` [drawing 959]: 1000 to 5000 nM.
With `CN1CCN(Cc2nn(Cc3ccccc3C(F)F)c3c2CN(c2cn[nH]c(=O)c2Cl)CC3)C(=O)C1` [drawing 975], the IC50 fell in the range of 0.01 to 1000 nM.
Regarding `CCc1ncccc1CN1CCN(c2cn[nH]c(=O)c2C#N)CC1`, the IC50 is 5000 to 10000 nM.
The same measure, in the same setting: next, `O=c1[nH]ncc(N2CCc3c(ncn3Cc3ccccc3C(F)(F)F)C2)c1Cl` [drawing 944]: 0.01 to 1000 nM.
In the case of `C[C@H](c1ccccc1Cl)n1nnc2c1CCN(c1cn[nH]c(=O)c1Cl)C2` [drawing 995], the IC50 was 0.01 to 1000 nM.
Still for that read-out and setting: the same measure for `C[C@@H](c1ccccc1C(F)(F)F)n1nnc2c1CCN(c1cn[nH]c(=O)c1C#N)C2`: 0.01 to 1000 nM; for `O=c1[nH]ncc(N2CCc3c(ncn3Cc3ccc(F)cc3Cl)C2)c1Cl` [drawing 998]: 0.01 to 1000 nM.
With `O=c1[nH]ncc(N2CCc3c(ncn3Cc3ccccc3C(F)F)C2)c1Cl` [drawing 952], the IC50 is 0.01 to 1000 nM.
`COCc1ncccc1Cn1cnc2c1CCN(c1cn[nH]c(=O)c1Cl)C2` [drawing 966]: the IC50 was 1000 to 5000 nM.
`C[C@@H]1CN(Cc2ccccc2C(F)(F)F)CCN1c1cn[nH]c(=O)c1Cl` [drawing 1016]: the IC50 was in the range of 5000 to 10000 nM.
Still for that read-out and setting: the same measure for `CNC(=O)c1nn([C@H](C)c2ccccc2C(F)F)c2c1CN(c1cn[nH]c(=O)c1Cl)CC2` [drawing 982]: 0.01 to 1000 nM; for `C[C@H](c1ccccc1)n1cnc2c1CCN(c1cn[nH]c(=O)c1Cl)C2` [drawing 940]: 0.01 to 1000 nM.
For the molecule `C[C@H](c1ccccc1C(F)(F)F)n1nnc2c1CCN(c1cn[nH]c(=O)c1Cl)[C@H]2C` [drawing 970], the IC50 fell in the range of 0.01 to 1000 nM.
For the molecule `CNC(=O)c1nc2c(n1Cc1ccccc1C(F)(F)F)CCN(c1cn[nH]c(=O)c1Cl)C2` [drawing 996], the IC50 was 0.01 to 1000 nM.
The same measure, in the same setting: next, `O=c1[nH]ncc(N2CCc3c(ncn3Cc3ccccc3C(F)(F)F)C2)c1Br` [drawing 950]: 0.01 to 1000 nM.
The same measure, in the same setting: next, `C[C@@H](c1ccccc1C(F)(F)F)n1nnc2c1CCN(c1cn[nH]c(=O)c1Cl)C2` [drawing 962]: 0.01 to 1000 nM; `O=c1[nH]ncc(N2CCc3c(ncn3Cc3ccc(F)cc3C(F)F)C2)c1Cl` [drawing 960]: 0.01 to 1000 nM; `O=C1CN(c2cn[nH]c(=O)c2Cl)CCN1Cc1ccccc1C(F)F`: 0.01 to 1000 nM.
Consider `O=c1[nH]ncc(N2CCc3c(c(=O)[nH]n3Cc3ccccc3C(F)(F)F)C2)c1Cl` [drawing 972], for which the IC50 was in the range of 0.01 to 1000 nM.
For `O=c1[nH]ncc(N2CCc3c(cnn3Cc3ccc(F)cc3C(F)(F)F)C2)c1Cl` [drawing 951], the IC50 fell in the range of 0.01 to 1000 nM.
Same read-out and setting: next, `O=c1[nH]ncc(N2CCc3c(nnn3Cc3ccc(F)cc3CC(F)(F)F)C2)c1Cl` [drawing 994]: 0.01 to 1000 nM; `O=C1CN(c2cn[nH]c(=O)c2Cl)CCN1Cc1ccccc1Cl`: 0.01 to 1000 nM.
With `Cc1ncccc1CN1CCN(c2cn[nH]c(=O)c2Cl)CC1` [drawing 1017], the IC50 lay within 1000 to 5000 nM.

Staying with this assay, now noted: Table 10; HEK-TREx hTRPC4; read-out: TRPC4-FLIPR ICSO.
Turning to `CN1CCN(Cc2nn(Cc3ccccc3C(F)F)c3c2CN(c2cn[nH]c(=O)c2Cl)CC3)C(=O)C1` [drawing 1091], the IC50 was 0.01 to 1000 nM.
